Melting point data for 34 compounds are collected here from a melting point compilation (Tetko et al.; mined from patent text by program, amines drawn as free bases though some values may be those of a salt).

A word on the melting point: it is the temperature, or range, at which the solid turns liquid. For the compound `NC(=O)c1ccc(C(=O)N2Cc3cccn3Cc3ccccc32)cc1`, the melting point is 226 to 228 °C.

`O=C(O)C1CCc2[nH]c3cc(Cl)c(Cl)cc3c2C1` (centres undefined) gave a melting point of 243 to 244 °C. The figure for `COc1ccc(CN2C(=O)C(c3cc(C#N)c(O)cc3O)c3ccccc32)cc1` (centres undefined) is 162 to 163 °C; for `O=C(Nc1n[nH]c(=S)s1)NC(Cc1ccccc1)C(=O)NCc1cccc2ccccc12` (centres undefined) it is 234 to 235 °C. As for `CCOc1c(C2=C(C(C)(C)C)C(C)(C)CO2)sc2ccc(O[Si](C)(C)C(C)(C)C)cc12`, the melting point was 64 to 65 °C. The figure for `N#Cc1ccc([C@@H]2[C@@H]3C(=O)N(Cc4ccc5c(c4)OCO5)C(=O)[C@@H]3[C@H]3CCCN32)cc1` (racemic) is 61 to 63 °C; for `O=C(Nc1ccccc1S(=O)(=O)c1ccccc1)N[C@@H](Cc1ccc(Nc2nccc3cnccc23)cc1)C(=O)O` it is 192 °C. The figure for `CCCCCCCC(=O)N(CCc1ccc(CCO)cc1)S(=O)(=O)c1ccc(Cl)cc1` is 55 °C; for `CC(C)(C)OC(=O)NC1C2CN(CC(O)(c3ccccc3)c3ccccc3)CC21` (centres undefined) it is 127 to 131 °C; for `CCOc1ccc(-c2nc(CCC(=O)c3ncccc3OC)cs2)cc1OCC` it is 79.2 to 79.7 °C. For the compound `OCc1cc(N2CCCCC2)c(Br)cn1`, the melting point is 118 to 119 °C. The figure for `CC1=C(C)N(c2c(Br)cc(C)cc2Br)C2=NCCN21` is 154 to 156 °C; for `CC(C)C[C@H](C(=O)O)N1CC[C@]2(CCCN2C(=O)C(C)C)C1=O` it is 68 to 69 °C; for `OCc1c[nH]c(Cc2ccccc2)n1` it is 134 to 135 °C.

For `O=c1[nH]c2ccc3ccc(-n4cccc4CN4CCN(Cc5ccccc5)CC4)cc3c2[nH]c1=O`, the melting point was over 250 °C. The figure for `CC#CC(C)(C)NC(=O)C(CC)Oc1cncc(Cl)c1` (centres undefined) is 87 to 89 °C; for `O=C(CN1CCC(Cc2ccccc2)CC1)Nc1ccc([N+](=O)[O-])cc1` it is 126 to 128 °C. The figure for `CCC(CO)c1ccc(N=C2SCCS2)cc1` (centres undefined) is 98.5 to 100 °C. As for `COC(=O)C(Oc1cc(OCc2ccsc2)ccc1C#N)c1ccccc1Br` (racemic), the melting point is 92 to 95 °C. In the case of `O=C(Nc1nc(C(O)C(=O)O)cs1)OCC(Cl)(Cl)Cl` (centres undefined), the melting point was 135 to 136 °C. The figure for `Cc1c(Cl)ccc(OC(C)C(=O)O)c1Cl` (centres undefined) is 150 °C; for `O=[N+]([O-])c1ccc2c(C3=CCC4(CC3)OCCO4)c[nH]c2c1` it is 259 to 261 °C. The compound `CCOC(=O)OC1=C(c2c(C)cc(C)cc2C)C(=O)N(C)C12CCN(OC)CC2` had a melting point of 134 to 136 °C. The figure for `Cc1cc(-n2ccnc2)c2cccc(OCc3c(Cl)ccc(S(=O)(=O)N4CCCC4C(=O)NCC4CCN(C(=O)CC(=O)OC(C)(C)C)CC4)c3Cl)c2n1` (centres undefined) is 101 °C. `c1ccc(OCCSCc2nnc(-c3ccc(OCCCCN4CCCCC4)cc3)o2)cc1` displayed a melting point of 57 to 62 °C.

`CCOC(=O)CN(c1ccc(Cl)cc1C(O)c1ccccc1Cl)S(=O)(=O)c1ccc(OC)c(OC)c1` (centres undefined) returned a melting point of 86 °C.

`Cn1ccc2cc(NC(=O)Oc3ccccc3)ccc21` registered a melting point of 103 to 107 °C. In the case of `CCOC(=O)C(C)Oc1ncn(-c2ccc(OC(F)(F)F)cc2)n1` (centres undefined), the melting point lay in the range of 52 to 53 °C. For `COc1ccc(OCC(O)CCN2CCN(c3ccccc3)CC2)cc1` (centres undefined), the melting point was 103 to 105 °C.

`COc1ccc2cc(Br)ccc2n1` came in with a melting point of 93 to 96 °C. For `CS(=O)(=O)c1ccc(-c2nn3c(c2-c2ccc(F)cc2)OCCC3)cc1`, the melting point was in the range of 198 to 200 °C. Consider `CCc1nnc2c(OC)nc3cc(Cl)ccc3n12`, for which the melting point lay within 221 to 223 °C.

In turn, `O=C1C(c2cccc(C(F)(F)F)c2)=C(NC2CC2)OC1c1ccccc1` (centres undefined) returned a melting point of 160 to 164 °C. The figure for `C#CCCCCCCCCCCOc1cccc(C(N)=O)c1` is 106 to 108 °C.
